Assay [1] concerns Plasmodium falciparum. Briefly: Antimalarial activity against chloroquine-sensitive Plasmodium falciparum 3D7. The format is functional. Conditions: read-out: ED50 (the source's name).
Assay [2] has as its system Plasmodium falciparum. Briefly: Antimalarial activity against chloroquine-resistant Plasmodium falciparum K1. The format is functional. Conditions: read-out: ED50 (the source's name).

Structures are written as SMILES. pEC50: −log10 of the molar value.

Take `CCN(CC)CCCC(C)Nc1ccnc2cc(Cl)ccc12` (configuration not stated) [CHLOROQUINE]: the pEC50 was 8.07 in assay [1] and 6.54 in assay [2].

The record behind these values is ChEMBL document CHEMBL1149698, “Metallocene-based antimalarials: an exploration into the influence of the ferrocenyl moiety on in vitro antimalarial activity in chloroquine-sensitive and chloroquine-resistant strains of Plasmodium falciparum” (Bioorg Med Chem, 2007).
